Test results reported in patent publication US7550158B2, “Controlled release by extrusion of solid amorphous dispersions of drugs” (Bend Research, Inc., priority 1999, dated 2009).
≈ marks a conversion by molar mass, not a printed value. Values belong to the compound of their own block, whether it stands above or below them.

Tests used:
Assay type in all cases: physicochemical
[1] = Dissolution in MFD solution (Example 8, sertraline); conditions: 40 ml MFD solution
Procedure: For a comparative dissolution study, Control H, consisting of 111.4 mg of the crystalline drug, was used. The dissolution of drug was studied by placing the bilayer tablet and Control H each in 40 ml of MFD solution.

[2] = Water solubility of the drug
[3] = Dissolution in phosphate-buffered solution pH 7.2 simulating intestinal environment (Example 7); conditions: 50 ml phosphate-buffered solution pH 7.2, Drug 2
Procedure: For a comparative dissolution study, Control G, consisting of 100 mg of crystalline Drug 2 was prepared. The dissolution of drug was studied by placing one each of the bi-layer tablet and Control G preparation containing an equal amount of Drug 2 in 50 ml of the phosphate-buffered solution of Example 3 (pH 7.2, osmotic pressure 5.3 atm) to simulate an intestinal environment of use.

[4] = Dissolution in phosphate buffered saline (PBS) solution (Example 3); conditions: 35 ml PBS solution, Drug 2
Procedure: For a comparative dissolution study, Control E, consisting of 35 mg of crystalline Drug 2 was prepared. The dissolution of drug was studied by placing two of the trilayer tablets and Control E each in 35 ml of a phosphate buffered saline (PBS) solution composed of 6 mm KH2PO4, 5 mM NaOH, 60 mM KCl and 30 mM NaCl. The data for the trilayer tablet is the average of the values for the two tablets tested.

[5] = Dissolution in MFD solution (Example 6); conditions: 50 ml MFD solution, Drug 1
Text: 1. The data for the tri-layer tablet is the average of the values for the two tablets tested.

MDC (maximum drug concentration) [1]: 401 µg/mL
AUC ([1]; time 0 hr): 0 µg·min/mL
[Drug] drug concentration ([1]; time 0 hr): 0 µg/mL
[Drug] drug concentration ([1]; time 0.2 hr): 278 µg/mL
[Drug] drug concentration ([1]; time 0.3 hr): 401 µg/mL
[Drug] drug concentration ([1]; time 0.7 hr): 341 µg/mL
[Drug] drug concentration ([1]; time 1.5 hr): 217 µg/mL
[Drug] drug concentration ([1]; time 2 hr): 188 µg/mL
[Drug] drug concentration ([1]; time 3 hr): 168 µg/mL
[Drug] drug concentration ([1]; time 4 hr): 152 µg/mL
[Drug] drug concentration ([1]; time 6 hr): 160 µg/mL
[Drug] drug concentration ([1]; time 10 hr): 137 µg/mL
[Drug] drug concentration ([1]; time 14 hr): 135 µg/mL
[Drug] drug concentration ([1]; time 24 hr): 191 µg/mL
Structure (SMILES): CN[C@H]1CC[C@@H](c2ccc(Cl)c(Cl)c2)c2ccccc21 [Control H, sertraline]

Structure (SMILES): CON(C)C(=O)C(O)[C@H](Cc1ccccc1)NC(=O)c1cc2cc(Cl)ccc2[nH]1 (stereo in doubt) [Drug 1, [R-(R*,S*)]-5-chloro-N-[2-hydroxy-3-[methoxymethylamino)-3-1-(phenylmethyl)propyl]propyl]-1H-indole-2-carboxamide]
water solubility [2]: 1 µg/mL (≈ 2.4 µM)

Structure (SMILES): O=C(N[C@@H](Cc1ccccc1)[C@@H](O)C(=O)N1C[C@@H](O)[C@@H](O)C1)c1cc2cc(Cl)ccc2[nH]1 [Control G]
MDC (maximum drug concentration) [3]: 77 µg/mL
[Drug] drug concentration ([3]; time 0 hr): 0 µg/mL
[Drug] drug concentration ([3]; time 1 hr): 59 µg/mL
[Drug] drug concentration ([3]; time 2 hr): 72 µg/mL
[Drug] drug concentration ([3]; time 4 hr): 72 µg/mL
[Drug] drug concentration ([3]; time 8 hr): 77 µg/mL
[Drug] drug concentration ([3]; time 12 hr): 71 µg/mL
[Drug] drug concentration ([3]; time 18 hr): 71 µg/mL
[Drug] drug concentration ([3]; time 24 hr): 75 µg/mL

Structure (SMILES): O=C(N[C@@H](Cc1ccccc1)[C@@H](O)C(=O)N1C[C@@H](O)[C@@H](O)C1)c1cc2cc(Cl)ccc2[nH]1 [Control E]
MDC (maximum drug concentration) [4]: 171 µg/mL
[Drug] drug concentration ([4]; time 0.3 hrs): 99 µg/mL
[Drug] drug concentration ([4]; time 1.5 hrs): 148 µg/mL
[Drug] drug concentration ([4]; time 2.0 hrs): 165 µg/mL
[Drug] drug concentration ([4]; time 3.0 hrs): 137 µg/mL
[Drug] drug concentration ([4]; time 4.0 hrs): 142 µg/mL
[Drug] drug concentration ([4]; time 12.0 hrs): 157 µg/mL
[Drug] drug concentration ([4]; time 20.0 hrs): 171 µg/mL

Structure (SMILES): CON(C)C(=O)C(O)[C@H](Cc1ccccc1)NC(=O)c1cc2cc(Cl)ccc2[nH]1 (stereo in doubt) [Control F, [R-(R*,S*)]-5-chloro-N-[2-hydroxy-3-[methoxymethylamino)-3-1-(phenylmethyl)propyl]propyl]-1H-indole-2-carboxamide]
MDC (maximum drug concentration) [5]: 16 µg/mL
[Drug] drug concentration ([5]; time 0 hr): 0 µg/mL
[Drug] drug concentration ([5]; time 2 hr): 13 µg/mL
[Drug] drug concentration ([5]; time 4 hr): 16 µg/mL
[Drug] drug concentration ([5]; time 8 hr): 13 µg/mL
[Drug] drug concentration ([5]; time 12 hr): 15 µg/mL
[Drug] drug concentration ([5]; time 20 hr): 12 µg/mL
[Drug] drug concentration ([5]; time 24 hr): 11 µg/mL
